# Where a name gives a salt, the structure may show the parent alone.
# Target: T1, G9a (Homo sapiens, UniProt Q96KQ7)
# T1 sequence (Q96KQ7 1-1210): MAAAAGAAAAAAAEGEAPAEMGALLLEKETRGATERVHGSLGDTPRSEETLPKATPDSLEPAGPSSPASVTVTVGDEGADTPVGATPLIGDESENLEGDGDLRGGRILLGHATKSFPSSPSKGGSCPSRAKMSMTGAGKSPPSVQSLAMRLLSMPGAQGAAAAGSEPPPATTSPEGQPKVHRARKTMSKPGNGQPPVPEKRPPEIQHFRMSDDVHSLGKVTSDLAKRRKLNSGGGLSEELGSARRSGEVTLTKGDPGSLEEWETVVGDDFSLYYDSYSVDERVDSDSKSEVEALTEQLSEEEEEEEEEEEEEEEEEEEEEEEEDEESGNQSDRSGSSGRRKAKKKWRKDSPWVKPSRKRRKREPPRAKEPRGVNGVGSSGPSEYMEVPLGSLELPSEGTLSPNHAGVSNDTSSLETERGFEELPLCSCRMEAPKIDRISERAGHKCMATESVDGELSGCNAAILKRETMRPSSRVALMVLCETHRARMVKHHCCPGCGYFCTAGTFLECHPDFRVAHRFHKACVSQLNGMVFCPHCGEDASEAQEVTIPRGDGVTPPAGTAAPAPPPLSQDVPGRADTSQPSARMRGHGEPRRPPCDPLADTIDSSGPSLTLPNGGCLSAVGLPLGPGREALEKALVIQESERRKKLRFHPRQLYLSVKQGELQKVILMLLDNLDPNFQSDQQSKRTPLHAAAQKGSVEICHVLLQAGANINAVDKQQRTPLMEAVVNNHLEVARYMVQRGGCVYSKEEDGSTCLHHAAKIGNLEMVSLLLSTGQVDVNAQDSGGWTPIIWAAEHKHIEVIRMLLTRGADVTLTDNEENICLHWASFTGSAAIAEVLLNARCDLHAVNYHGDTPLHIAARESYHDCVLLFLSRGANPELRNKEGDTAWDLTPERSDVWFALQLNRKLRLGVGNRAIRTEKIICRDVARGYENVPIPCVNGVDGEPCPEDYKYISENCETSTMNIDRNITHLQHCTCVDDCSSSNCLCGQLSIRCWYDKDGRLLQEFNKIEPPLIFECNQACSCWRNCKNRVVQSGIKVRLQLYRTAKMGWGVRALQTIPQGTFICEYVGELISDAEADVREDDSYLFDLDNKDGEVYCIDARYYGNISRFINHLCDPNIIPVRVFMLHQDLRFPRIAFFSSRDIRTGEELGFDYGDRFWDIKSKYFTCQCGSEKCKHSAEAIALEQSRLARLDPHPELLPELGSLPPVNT
# Assay: G9a AlphaLISA enzymatic activity assay
# Format: biochemical
# Settings: negative log of IC50 in molar, 0.15 nM G9a, 15 uM S-adenosyl-methionine, 100 nM biotinylated histone 3 peptide (1-21)
# Description: The G9a AlphaLISA assay was used to detect the methyl modifications of a biotinylated histone H3 peptide by the compounds. These modifications are done by the histone methyl transferase activity of the G9a enzyme. The assay consists of reading a chemiluminescent signal at 615 nm; this signal is generated by a laser excitation at 680 nm that transfers a reactive singlet oxygen between the donor beads and acceptor beads. Donor beads are streptavidin conjugated and bind to the biotin on the peptide. Acceptor beads are conjugated with an antibody that recognizes the specific G9a methyl mark on the peptide. If there is a methyl mark on the peptide, the acceptor beads will bind to the peptide. Upon binding, the acceptor beads will be in close proximity (<200 nm) of the donor beads and when the donor beads are excited, the transfer of the oxygen can occur and a strong signal will be generated. If there is no methyl mark, the interaction between beads will not occur and signal will be at background levels.
# For the assay, the following buffer was used to set up reactions: 50 mM Tris-HCl pH9, 50 mM NaCl, 0.01% Tween-20 and 1 mM DTT (added fresh prior to starting the reactions). […] The reaction is incubated at rt for 1 hour and subsequently quenched by the addition of the acceptor beads (anti-H3k9me2 AlphaLISA acceptor beads, PerkinElmer #AL117) at a final concentration of 20 ug/mL. The acceptor beads are incubated for 1 hour. After 1 hour, the donor beads are added at a final concentration of 20 ug/mL (Alpha Streptavidin donor beads, PerkinElmer #6760002). Donor beads are incubated for 0.5 hours. Both donor and acceptor beads are resuspended in AlphaLISA 5X Epigenetics Buffer 1 Kit (PerkinElmer #AL008) prior to addition to the reaction. All manipulations and incubations with the donor and acceptor beads are done in subdued light. Signal is detected in an EnVision plate reader in Alpha mode. See ACS Med Chem Lett. 2014; 5(2):205-9.
# Percent inhibition was calculated for each compound dilution and the concentration that produced 50% inhibition was calculated. This value is presented as the pIC50, which is the negative log of the IC50 value in molar.
row,IC50 [nM],SMILES
1,63.1,"CC(C)Nc1c2c(nc3cc(OCCCN4CCCC4)c(OC(F)F)cc13)CCC2 [Example 35, 7-(difluoromethoxy)-N-(propan-2-yl)-6-[3-(pyrrolidin-1-yl)propoxy]-1H,2H,3H-cyclopenta[b]quinolin-9-amine]"
2,1480,"CCOCCNc1c2c(nc3cc(OCCCN(C)CCF)c(OC)cc13)CCC2 [Example 57, N-(2-ethoxyethyl)-6-{3-[(2-fluoroethyl)(methyl)amino]propoxy}-7-methoxy-1H,2H,3H-cyclopenta[b]quinolin-9-amine]"
3,1.45,"COc1cc2c(NC3CCCNC3)c3c(nc2cc1OCCCN(C)C)CCC3 (centres unmarked) [Example 73, N-{6-[3-(dimethylamino)propoxy]-7-methoxy-1H,2H,3H-cyclopenta[b]quinolin-9-yl}piperidin-3-amine]"
4,40.7,"COc1cc2c(NCC3CC3)c3c(nc2cc1OCC(O)CN1CCCC1)CCC3 (centres unmarked) [Example 40, 1-({9-[(cyclopropylmethyl)amino]-7-methoxy-1H,2H,3H-cyclopenta[b]quinolin-6-yl}oxy)-3-(pyrrolidin-1-yl)propan-2-ol]"
5,83.2,"CCNc1c2c(nc3cc(OCCCN4CCCC4)c(OC)cc13)CCC2(C)C [Example 21, N-ethyl-7-methoxy-1,1-dimethyl-6-[3-(pyrrolidin-1-yl)propoxy]-1H,2H,3H-cyclopenta[b]quinolin-9-amine]"
6,57.5,"COc1cc2c(NCCC(C)(C)O)c3c(nc2cc1OCCCN1CCCC1)CCCCC3 [Example 39, 4-({2-methoxy-3-[3-(pyrrolidin-1-yl)propoxy]-6H,7H,8H,9H,10H-cyclohepta[b]quinolin-11-yl}amino)-2-methylbutan-2-ol]"
7,17.4,"COc1cc2c(NC(C)C)c3c(nc2cc1OCCOCCN(C)C)CCC3 [Example 45, 6-{2-[2-(dimethylamino)ethoxy]ethoxy}-7-methoxy-N-(propan-2-yl)-1H,2H,3H-cyclopenta[b]quinolin-9-amine]"
8,22.4,"COc1cc2c(NC[C@H](C)OC)c3c(nc2cc1OCCCN1CCCC1)CCC3 [Example 15, 7-methoxy-N-[(2S)-2-methoxypropyl]-6-[3-(pyrrolidin-1-yl)propoxy]-1H,2H,3H-cyclopenta[b]quinolin-9-amine]"
9,4.9,"COc1cc2c(NC3CCN(C(C)C)CC3)c3c(nc2cc1OCCCN(C)C)CCC3 [Example 70, N-{6-[3-(dimethylamino)propoxy]-7-methoxy-1H,2H,3H-cyclopenta[b]quinolin-9-yl}-1-(propan-2-yl)piperidin-4-amine]"
10,30.9,"COc1cc2c(NC(C)C)c3c(nc2cc1OCCCN1CCCC1)CC(C)(C)C3 [Example 7, 7-methoxy-2,2-dimethyl-N-(propan-2-yl)-6-[3-(pyrrolidin-1-yl)propoxy]-1H,2H,3H-cyclopenta[b]quinolin-9-amine]"
11,52.5,"CCNc1c2c(nc3cc(OCCCN4CC[C@@H](OC)C4)c(OC)cc13)CCC2 [Example 75, N-ethyl-7-methoxy-6-{3-[(3R)-3-methoxypyrrolidin-1-yl]propoxy}-1H,2H,3H-cyclopenta[b]quinolin-9-amine]"
12,468,"COCCNc1c2c(nc3cc(OCCCN4CCCC4)c(OC)cc13)CCC2(C)C [Example 23, 7-methoxy-N-(2-methoxyethyl)-1,1-dimethyl-6-[3-(pyrrolidin-1-yl)propoxy]-1H,2H,3H-cyclopenta[b]quinolin-9-amine]"
13,2690,"CNc1c2c(nc3cc(OCCCN4C5CCCC4CC5)c(OC)cc13)CCC2 [Example 69, 6-(3-{8-azabicyclo[3.2.1]octan-8-yl}propoxy)-7-methoxy-N-methyl-1H,2H,3H-cyclopenta[b]quinolin-9-amine]"
14,37.2,"CCCOCCNc1c2c(nc3cc(OCCCN4CCCC4)c(OC)cc13)CCC2 [Example 16, 7-methoxy-N-(2-propoxyethyl)-6-[3-(pyrrolidin-1-yl)propoxy]-1H,2H,3H-cyclopenta[b]quinolin-9-amine]"
15,12.6,"COc1cc2c(NC[C@H]3COCCO3)c3c(nc2cc1OCCCN1CCCC1)CCC3 [Example 27, N-{[(2S)-1,4-dioxan-2-yl]methyl}-7-methoxy-6-[3-(pyrrolidin-1-yl)propoxy]-1H,2H,3H-cyclopenta[b]quinolin-9-amine]"
16,6.17,COC[C@H](C)Nc1c2c(nc3cc(OCCCN4CCCC4)c(OC)cc13)CCC2 [Example 4]
17,2750,"CCN(CCCOc1cc2nc3c(c(NC)c2cc1OC)CCC3)CCOC [Example 58, 6-{3-[ethyl(2-methoxyethyl)amino]propoxy}-7-methoxy-N-methyl-1H,2H,3H-cyclopenta[b]quinolin-9-amine]"
18,1.35,"COc1cc2c(NCC3CNC3)c3c(nc2cc1OCCCN1CCCC1)CCC3 [Example 67, N-[(azetidin-3-yl)methyl]-7-methoxy-6-[3-(pyrrolidin-1-yl)propoxy]-1H,2H,3H-cyclopenta[b]quinolin-9-amine]"
19,35.5,"CCNc1c2c(nc3cc(OCCCN4CCCC4)c(OC(F)F)cc13)CCC2 [Example 30, 7-(difluoromethoxy)-N-ethyl-6-[3-(pyrrolidin-1-yl)propoxy]-1H,2H,3H-cyclopenta[b]quinolin-9-amine]"
20,776,"COCCNc1c2c(nc3cc(OCCCN4CCCC4)c(OC(F)(F)F)cc13)CCC2 [Example 50, N-(2-methoxyethyl)-6-[3-(pyrrolidin-1-yl)propoxy]-7-(trifluoromethoxy)-1H,2H,3H-cyclopenta[b]quinolin-9-amine]"
21,158,"Oc1cc2c(NCC3CC3)c3c(nc2cc1OCCCN1CCCC1)CCC3 [Example 2, dihydrochloride]"
22,107,"COCCNc1c2c(nc3cc(OCCCN4CCCC4)c(OC(F)F)cc13)CCC2 [Example 32, 7-(difluoromethoxy)-N-(2-methoxyethyl)-6-[3-(pyrrolidin-1-yl)propoxy]-1H,2H,3H-cyclopenta[b]quinolin-9-amine]"
23,8.32,"COc1cc2c(NCC3CNC3)c3c(nc2cc1OCCCN1CC2CC(C2)C1)CCC3 [Example 74, 6-(3-{3-azabicyclo[3.1.1]heptan-3-yl}propoxy)-N-[(azetidin-3-yl)methyl]-7-methoxy-1H,2H,3H-cyclopenta[b]quinolin-9-amine]"
24,10,"COc1cc2c(NC[C@H]3CCOC3)c3c(nc2cc1OCCCN1CCCC1)CCC3 [Example 28, 7-methoxy-N-{[(3R)-oxolan-3-yl]methyl}-6-[3-(pyrrolidin-1-yl)propoxy]-1H,2H,3H-cyclopenta[b]quinolin-9-amine]"
25,145,"COCCCNc1c2c(nc3cc(OCCCN4CCCC4)c(OC(F)F)cc13)CCC2 [Example 33, 7-(difluoromethoxy)-N-(3-methoxypropyl)-6-[3-(pyrrolidin-1-yl)propoxy]-1H,2H,3H-cyclopenta[b]quinolin-9-amine]"
26,72.4,"CNc1c2c(nc3cc(OC(C)CCN4CCCC4)c(OC)cc13)CCC2 (centres unmarked) [Example 65, 7-methoxy-N-methyl-6-{[4-(pyrrolidin-1-yl)butan-2-yl]oxy}-1H,2H,3H-cyclopenta[b]quinolin-9-amine]"

# From patent US11584734B2, “Tricyclic compounds as histone methyltransferase inhibitors” (GLOBAL BLOOD THERAPEUTICS, INC., priority 2017, dated 2023)
